Assay [1] concerns 1205Lu melanoma cells. Kind of assay: Invasion assay in Matrigel-coated Boyden chambers. Type of assay: cell-based, human. As to conditions: for cell invasion, dose dependence: indicated concentrations. As to the method: (§1) Boyden chambers (8.0-μm pores, Transwell, Corning, Inc.) were coated with 1 mg/ml Matrigel® (BD Biosciences) and were placed into 24-well chambers containing medium supplemented with 10% FCS. The cells were resuspended in FCS-starved medium, loaded into the top chamber. […] Results represent the average of triplicate samples from three independent experiments.

Assay [2] concerns A375 melanoma cells. The experiment in a line: Invasion assay in Matrigel-coated Boyden chambers. The class given is cell-based. As to conditions: 24 h; for cell invasion, dose dependence: indicated concentrations. As to the method:
as §1

Assay [3] deals with p53. Kind of assay: p53-dependent luciferase reporter assay (PG13-Luc) in melanoma cells. Type of assay: cell-based. As to conditions: positive control.
Protocol: Melanoma cells were seeded in 24-well dishes, and transient transfections were performed the following day using 2 μl Lipofectamine (Gibco-BRL, Eragny, France) and 0.3 mg of PG13-Luc, a p53-dependent firefly luciferase reporter gene in a 200-ml final volume. pCMVβGal plasmid was cotransfected to control the variability of transfection efficiency in the reporter assays. […] At 24 hours after stimulation, cells were harvested in 50 μl of lysis buffer and soluble extracts assayed for luciferase and β-galactosidase activities. All transfections were repeated several times using different plasmid preparations. Luciferase assays were carried out exactly as described (17).
Assay [4] has as its system WM9 melanoma cells. The experiment in a line: Three-dimensional spheroid invasion into collagen. Type of assay: cell-based. As to the method: Melanoma spheroids were prepared using the liquid overlay method. Briefly, 500 μL of melanoma cells (20000/ml) were added to a 24-well plate coated with 1.5% agar (Difco, Sparks, Md.). Plates were left to incubate for 72 hours, by which time cells had organized into three-dimensional spheroids. Spheroids were then harvested using a P1000 pipette. The medium was removed and the spheroids were implanted into a gel of bovine collagen I containing MEM (Invitrogen). Normal melanoma medium was overlaid on top of the solidified collagen. After different time, pictures of the invading spheroids were taken using a Zeiss microscope.

Assay [5] relates to melanoma cells freshly isolated from patients. The experiment in a line: Invasion assay in Matrigel-coated Boyden chambers. The class given is cell-based, human. Conditions: 10 mM, 24 h. As for the experimental part: Different cancer cell lines were purchased from American Tissue Culture Collection (Molsheim, France). Cells were grown in RPMI 1640 (A375, WM9, SKMel28 and LNCap) or in DMEM medium (1205Lu, Mel501, Mewo and PC3) supplemented with 10% FCS and penicillin/streptomycin (100 U/ml/[…]) at 37° C. and 5% CO2. Patient melanoma cells were prepared as described (13). Briefly, biopsy was dissected and digested for 1-2 h with collagenase A (0.33 U/ml), dispase (0.85 U/ml) and Dnase I (144 U/ml) with rapid shaking at 37° C. Large debris were removed by filtration through a […] cell strainer. Viable cells were obtained by Ficoll gradient centrifugation.
Boyden chambers (8.0-μm pores, Transwell, Corning, Inc.) were coated with 1 mg/ml Matrigel® (BD Biosciences) and were placed into 24-well chambers containing medium supplemented with 10% FCS. The cells were resuspended in FCS-starved medium, loaded into the top chamber. 5 h later, cells adherent to the underside of the filters were fixed with 4% PFA and stained with 0.4% crystal violet, and five random fields at 20× magnification were counted. Results represent the average of triplicate samples from three independent experiments.

In assay [6] the test system is A375 melanoma cells. Kind of assay: Migration assay in Boyden chambers. As to conditions: after 24 hours. Type of assay: cell-based. The source says:
(§2) Boyden chambers (8.0-μm pores, Transwell, Corning, Inc.) were placed into 24-well chambers containing medium supplemented with 10% FCS. The cells were resuspended in FCS-starved medium, loaded into the top chamber. […] Results represent the average of triplicate samples from three independent experiments.

Assay [7] concerns 1205Lu melanoma cells. The experiment in a line: Pulmonary extravasation model in nude mice. Conditions: cells treated 24 h with 10 mM before tail vein injection; lungs after 24 h.
Assay [8] relates to 1205Lu melanoma cells. The experiment in a line: Migration assay in Boyden chambers. The class given is cell-based, human. Conditions: after 24 hours.
From the text: as §2

Assay [9] has as its system melanomas cells. Conditions: long term treatment of 96 hours; cited from earlier work.
Assay [10] deals with 1205Lu melanoma cells. The experiment in a line: Wound healing assay. The class given is cell-based, human.
The test system of assay [11] is MMP-2. Kind of assay: Type I collagen substrate zymography, 1205Lu culture media. The class given is cell-based, human. As to the method:
(§3) The culture media from 1205Lu melanoma cells was concentrated in centrifugal filter unit and loaded on 10% SDS-polyacrylamide gels containing 1 mg/ml type I collagen (BD Biosciences). To estimated the protein concentration, 1205Lu melanoma cells were lysed in a buffer containing 1% Triton X-100, 150 mM NaCl, and 20 mM Tris, pH 7.4, supplemented with a protease inhibitor mixture (Complete EDTA-free, Roche Molecular Biochemicals) at 4° C. under agitation for 30 min. Lysates were clarified by brief spinning, and protein concentration was evaluated by bicinchoninic acid technique (BCA protein assay kit, Pierce). Following electrophoresis, proteins were renatured by incubating gels in 2.5% Triton X-100 for 2 h at 37° C. Gels were then washed three times in distilled water and incubated in substrate buffer (50 mM Tris, pH 7.4, and 1 mM CaCl2) at 37° C. for 24 h with gentle shaking Gels were stained with 0.1% Coomassie Blue R-250 (Sigma) and destained in 7% acetic acid. Enzymatic activities appear as cleared bands in a dark background.

Assay [12] relates to MMP-9. Described as above. Type of assay: cell-based, human. As for the experimental part: as §3
For assay [13], the system named is total MMP activity. Kind of assay: Matrix metalloproteinase (MMP) activity measurement, fluorogenic substrate, culture media of 1205Lu cells. Type of assay: cell-based, human. As to conditions: 10 mM, 24 h. As to the method: The culture media from stimulated cells were harvested and incubated in a 96-well plate with 0.2 mM of NH2-RA-Dpa-LGLP-AMC as a substrate for various times at 37° C. MMP activity was measured in quadruplicate by quantifying the emission at 460 nm (excitation at 390 nm) in the presence or absence of 10 μM CP471474. The enzyme activities were expressed in arbitrary units per mg of protein.

Assay [14] relates to Slug and N-cadherin in Mewo cells. Kind of assay: Western blot in Mewo cells infected with Adp53. Type of assay: cell-based. As to conditions: re-expression of WT p53 by adenovirus infection. As for the experimental part:
(§4) Protein were extracted in buffer containing TRIS-HCl pH7.5 50 mM, NaCl 15 mM, Triton X-100 1% and protease and phosphatase inhibitor 1X. Briefly, cell lysates (30 μg) were separated by SDS-PAGE, transferred onto a PVDF membrane (Millipore, Molsheim, France) and then exposed to the appropriate antibodies. Proteins were visualized with the ECL system from Amersham (Arlington, Heights, Ill., USA). The western blots shown are representative of at least 3 independent experiments.
(Immunoblotting shows a protein as a band on a membrane.)

Assay [15] has as its system 1205Lu melanoma cells expressing luciferase. The experiment in a line: Lung metastasis model, bioluminescence, nude mice. The class given is in vivo. As to the method:
1205Lu cells stably transfected with a vector encoding luciferase cells come from the team of Dr. Tartare-Deckert. A total of 1×10^6/150 μl PBS 1205Lu-Luc cells were injected via the tail vein of nude mice (Harlan Laboratories). […] To perform pulmonary extravasation analysis, 1.5×10^6 1205Lu cells were labelled for 1 h with CellTracker™ Green (Invitrogen) and injected via the tail vein of nude mice.

The test system of assay [16] is AMPK. The experiment in a line: Western blot in 1205Lu cells infected with Ad AMPK-DN or Ad control. Type of assay: cell-based, human. As for the experimental part: Adenoviruses encoding a dominant negative form (Ad AMPK-DN) of subunits α1 and α2 of AMPK were a generous gift of Dr. Foufelle (INSERM, UMR-S 872, Paris, France). An adenovirus of which the expression cassette contains the major late promoter with no exogenous gene was used as control (Ad control). Adenoviruses were propagated in human embryonic kidney 293 cells and stored at −80° C.
as §4

Assay [17] relates to Fibronectin, N-Cadherin, Vimentin, Sparc, Slug and Snail in 1205Lu melanoma cells. The experiment in a line: Western blot of EMT markers. Type of assay: cell-based, human. As for the experimental part:
as §4

Assay [18] relates to A375 melanoma cells. The experiment in a line: Wound healing assay. The class given is cell-based.
[19] abbreviates: cells transfected with siRNA against p53.

Starred links: 1 amine or outer side, 2 acyl side, 3 side chain; linkers in the order of their positions; H or OH if unused. Positions of bridges follow the written chain, without caps; N, C: chain ends. Non-standard residues stand in square brackets, D forms with d. Residues, ends and D or L forms follow the SMILES beside them. Chains are numbered I, II in the order given. Actinocin(9to1) = Cc1c2oc3c(C)ccc(C(=O)[*:1])c3nc-2c(C(=O)[*:2])c(N)c1=O; NMeV = CN[C@H](C(=O)O)C(C)C; Sar = CNCC(=O)O

For `NC(=O)c1ncn([C@@H]2O[C@H](CO)[C@@H](O)[C@H]2O)c1N` [AICAR, 5-aminoimidazole-4-carboxamide-1-β-D-ribofuranoside], the “cell invasion, dose dependence” value in assay [1] (24 h) and in assay [2] was “decreases cell invasion in dose dependent manner” in each case.
As to `Cc1c2oc3c(C)ccc(C(=O)N[C@@H]4C(=O)N[C@H](C(C)C)C(=O)N5CCC[C@H]5C(=O)N(C)CC(=O)N(C)[C@@H](C(C)C)C(=O)O[C@@H]4C)c3nc-2c(C(=O)N[C@@H]2C(=O)N[C@H](C(C)C)C(=O)N3CCC[C@H]3C(=O)N(C)CC(=O)N(C)[C@@H](C(C)C)C(=O)O[C@@H]2C)c(N)c1=O` [Actinomycin D] (I: T[dV]P[Sar][NMeV] / II: T[dV]P[Sar][NMeV]; ester I:1-I:C, II:1-II:C; linker I:N-II:N via Actinocin(9to1)), the “increase of p53 promoter activity” value in assay [3] is “comparable to metformin 10 mM”.
In the case of `CC(C)[C@H](NC(=O)c1ccc2ccccc2n1)C(=O)N[C@@H](CC(=O)O)C(=O)COc1c(F)cccc1F` [QVD], in assay [4] (spheroids embedded in collagen), the “cell invasion into collagen” value is on record as “contrary to QVD alone, association of QVD with metformin block invasion”.
As usually defined, the inhibition is the change of the read-out against control, counted positive when it falls. For the compound `CN(C)C(=N)N=C(N)N` [metformin], the “cell invasion, dose dependence” value in assay [1] (24 h) and in assay [2] was “decreases cell invasion in dose dependent manner” throughout. In addition, the inhibition at 10000 µM was 95% in assay [1] (Homo sapiens, 1205Lu, 10 mM, 24 h, read-out: inhibition of cell invasion) and 90% in [2] (Homo sapiens, A-375, 10 mM, read-out: inhibition of cell invasion). Also, the inhibition of invasion entry is “prevent downregulation of Slug and inhibition of invasion” in [1] (setting [19]); “abolished” in [1] (in presence of dominant negative forms of AMPK). For the same compound, in [5], the cell invasion entry is recorded as “significant inhibition of cell invasion”. The cell migration result in assay [6] and in assay [8] was “do not inhibit migration” each time. Also, the results for the “cell invasion into collagen” value in assay [4] (in presence of apoptosis inhibitor QVD) and in assay [4] (spheroids embedded in collagen) were “block invasion” and “significantly reduced cell invasion into collagen”, respectively. The “micro-metastases in the lungs (extravasation)” value in assay [7] is “much more micro-metastases in the lungs than 1205Lu cells treated by metformin”. Further, in assay [9], the cell death result was “induced cell death of melanomas cells”. Also, the “cell migration (wound healing)” value in assay [10] and in assay [18] was “Results were confirmed” in each case. In addition, in assay [11] (5 mM), the MMP-2 activity result is “important diminution”. Also, the “decrease of MMP-2 activity” value in [11] (10 mM) was 80%. The MMP-9 activity result in [12] (5 mM) is recorded as “important diminution”. In addition, the “decrease of MMP-9 activity” value in assay [12] (10 mM) is 45%. Besides, the “decrease of total MMP activities” value in [13] was “approximately 30%”. Moreover, the “decrease in Slug and N-cadherin expressions” value in [14] is recorded as “restored”. In assay [15] (7 days after cell injection, intraperitoneal, 2 mg/mouse/day), the “increase in bioluminescence intensity in lungs of vehicle-treated mice compared to metformin-treated mice” value is reported as 3 fold. Besides, the “bioluminescence intensity in lungs” value in [15] (after 39 day, intraperitoneal, 2 mg/mouse/day) was “very weak”. Moreover, the “Slug staining in sections of lung tumors” value in [15] (immunofluorescent staining, vs vehicle) is “significant decrease in Slug staining”. For the same compound, the “metformin-stimulated phosphorylation of Acetyl-CoA carboxylase (ACC)” value in assay [16] (cells infected by AdAMPK DN α1 and α2) is given as “abolished”. The “Slug and SPARC expression” value in assay [16] (cells infected with Ad control) is “inhibited”; in assay [16] (expression of AMPK DN constructs) it was “abrogates these inhibitory effects”. Further, the N-cadherin expression result in assay [17] (24 h) is on record as “decrease”; in [17] (24 h, listed as Metformin), “inhibited in a dose dependent manner”. Besides, in assay [17] (24 h), the SPARC expression entry was “inhibited in a dose dependent manner”. The Slug level result in assay [17] (24 h) is listed as “decrease”; in assay [17] (24 h, listed as Metformin), “also decrease”. Further, in assay [17] (24 h), the Snail level entry is reported as “also decrease”. For the same compound, the fibronectin expression entry is “decrease” in [17] (24 h) and “inhibited in a dose dependent manner” in assay [17] (24 h, listed as Metformin). Also, the vimentin expression entry in [17] (24 h) is reported as “not modified”. The Slug downregulation result in assay [17] (setting [19]) is listed as “prevent downregulation of Slug”.
For `[H]/N=C(/N)N/C(=N/[H])NCCc1ccccc1` [phenformin], the “cell invasion, dose dependence” value in assay [1] (24 h) and in assay [2] was “decreases cell invasion in dose dependent manner” throughout.
On to `Oc1ccc(/C=C/c2cc(O)cc(O)c2)cc1` [resveratrol, 3,5,4′-trihydroxy-trans-stilbene], for which the “cell invasion, dose dependence” value in assay [1] (24 h) and in [2] was “decreases cell invasion in dose dependent manner” each time.

Values taken from US20160030367A1, “Methods and Compositions for Preventing Metastasis and for Improving the Survival Time” (INSERM (INSTITUT NATIONAL DE LA SANTÉ ET DE LA RECHERCHE …, priority 2013, published 2016).
